From patent publication US8623864B2, “Thioridazine and derivatives thereof for reversing anti-microbial drug-resistance” (NOA Sic Aps, priority 2003, dated 2014)
Like-named read-outs stand apart in the source and are kept apart here.

Experiments:
[1] = test system: a known bacterial strain; test: MIC of erythromycin and thioridazine, alone and combined; assay type: cell-based
[2] = test system: a common bacterial strain; test: MIC of oxacillin alone and combined with thioridazine; assay type: cell-based; settings: read-out: effective MIC
[3] = test system: Enterococcus faecalis; test: Microdilution checkerboard, antibiotic plus resistance modifier; assay type: cell-based
[4] = test system: human Enterococcus faecalis; test: as above; assay type: cell-based; settings: Enterococcus faecalis, drug alone
[5] = test system: tumour cell lines; settings: Akiyama et al. 1986; cited from earlier work
[6] = test system: Mycobacterium tuberculosis; settings: Ordway et al. 2003; cited from earlier work
[7] = strain A, each drug in the combination VAN + PCP
[8] = strain A, each drug in the combination VAN + THIO
[9] = strain B, each drug in the combination VAN + PCP
[10] = strain B, each drug in the combination VAN + THIO
[11] = strain C, each drug in the combination VAN + PCP
[12] = strain C, each drug in the combination VAN + THIO
[13] = strain D, each drug in the combination VAN + PCP
[14] = strain D, each drug in the combination VAN + THIO
[15] = strain E, each drug in the combination VAN + PCP
[16] = strain E, each drug in the combination VAN + THIO
[17] = strain A, each drug in the combination AMP + THIO
[18] = strain B, each drug in the combination AMP + THIO
[19] = strain C, each drug in the combination AMP + THIO
[20] = strain D, each drug in the combination AMP + THIO
[21] = strain E, each drug in the combination AMP + THIO
[22] = strain A, read-out: MIC of single drug (microdilution checkerboard)
[23] = strain B, read-out: MIC of single drug (microdilution checkerboard)
[24] = strain C, read-out: MIC of single drug (microdilution checkerboard)
[25] = strain D, read-out: MIC of single drug (microdilution checkerboard)
[26] = strain E, read-out: MIC of single drug (microdilution checkerboard)
[27] = strain A, each drug in the combination AMP + PCP
[28] = strain B, each drug in the combination AMP + PCP
[29] = strain C, each drug in the combination AMP + PCP
[30] = strain D, each drug in the combination AMP + PCP
[31] = strain E, each drug in the combination AMP + PCP

SMILES | MIC [1] [µg/mL] | Combination of drugs (MIC) [3, 7] [µg/mL] | Combination of drugs (MIC) [3, 8] [µg/mL] | Combination of drugs (MIC) [3, 9] [µg/mL] | Combination of drugs (MIC) [3, 10] [µg/mL] | Combination of drugs (MIC) [3, 11] [µg/mL] | Combination of drugs (MIC) [3, 12] [µg/mL] | Combination of drugs (MIC) [3, 13] [µg/mL] | Combination of drugs (MIC) [3, 14] [µg/mL] | Combination of drugs (MIC) [3, 15] [µg/mL] | Combination of drugs (MIC) [3, 16] [µg/mL] | Combination of drugs (MIC) [3, 17] [µg/mL] | Combination of drugs (MIC) [3, 18] [µg/mL] | Combination of drugs (MIC) [3, 19] | Combination of drugs (MIC) [3, 20] [µg/mL] | MIC [4, 22] [µg/mL] | MIC [4, 23] [µg/mL] | MIC [4, 24] [µg/mL] | MIC [4, 25] [µg/mL] | MIC [4, 26] [µg/mL] | other results
CC[C@H]1OC(=O)[C@H](C)[C@@H](O[C@H]2C[C@@](C)(OC)[C@@H](O)[C@H](C)O2)[C@H](C)[C@@H](O[C@@H]2O[C@H](C)C[C@H](N(C)C)[C@H]2O)[C@](C)(O)C[C@@H](C)C(=O)[C@H](C)[C@@H](O)[C@]1(C)O [Erythromycin] | 24 | – | – | – | – | – | – | – | – | – | – | – | – | – | – | – | – | – | – | – | Erythromycin concentration needed in combination ([1]; combined with 12 μg/ml of the levorotatory isomer of thioridazine): 1 µg/mL; Erythromycin concentration needed in combination ([1]; combined with 12 μg/ml of thioridazine in racemic form): less than 8 μg/ml
Cc1onc(-c2ccccc2)c1C(=O)N[C@@H]1C(=O)N2[C@@H]1SC(C)(C)[C@@H]2C(=O)O [oxacillin] | – | – | – | – | – | – | – | – | – | – | – | – | – | – | – | – | – | – | – | – | MIC ([2]; combined with 8 μg/ml of thioridazine): 1 µg/mL; MIC ([2]; oxacillin alone, common bacterial strain): > 256 µg/mL
CN[C@H](CC(C)C)C(=O)N[C@H]1C(=O)N[C@@H](CC(N)=O)C(=O)N[C@H]2C(=O)N[C@H]3C(=O)N[C@H](C(=O)N[C@H](C(=O)O)c4cc(O)cc(O)c4-c4cc3ccc4O)[C@H](O)c3ccc(c(Cl)c3)Oc3cc2cc(c3O[C@@H]2O[C@H](CO)[C@@H](O)[C@H](O)[C@H]2O[C@H]2C[C@](C)(N)[C@H](O)[C@H](C)O2)Oc2ccc(cc2Cl)[C@H]1O [vancomycin] | – | 48 | 6 | 1 | 2 | 64 | 64 | 32 | 32 | 0.5 | 1 | – | – | – | – | – | – | – | – | – | MIC ([4]; read-out: MIC of single drug (microdilution checkerboard), strain A): 192 µg/mL; MIC ([4]; read-out: MIC of single drug (microdilution checkerboard), strain B): 4 µg/mL; MIC ([4]; read-out: MIC of single drug (microdilution checkerboard), strain C): 128 µg/mL; MIC ([4]; read-out: MIC of single drug (microdilution checkerboard), strain D): 500 µg/mL; MIC ([4]; read-out: MIC of single drug (microdilution checkerboard), strain E): 2 µg/mL
CSc1ccc2c(c1)N(CCC1CCCCN1C)c1ccccc1S2 (racemic) [THIO, thioridazine] | 16 | – | 8 | – | 32 | – | 4 | – | 8 | – | 2 | 16 | 8 | AMP (4) + THIO (4) μg/ml | 4 | 32 | 32 | 32 | 32 | 32 | Reversal of resistance to antineoplastic agents [5]: effective in reversing resistance to a variety of antineoplastic agents; Ability to kill bacteria in vitro [6]: kill Mycobacterium tuberculosis in vitro; Combination of drugs (MIC) [3, 21]: 8 µg/mL
CN1CCN(CCCN2c3ccccc3Sc3ccc(Cl)cc32)CC1 [PCP, prochlorperazine] | – | 16 | – | 16 | – | 8 | – | 8 | – | 8 | – | – | – | – | – | 32 | 64 | 32 | 32 | 32 | Combination of drugs (MIC) [3, 27]: 0.25 µg/mL; Combination of drugs (MIC) [3, 28]: 16 µg/mL; Combination of drugs (MIC) [3, 29]: 0.5 µg/mL; Combination of drugs (MIC) [3, 30]: 8 µg/mL; Combination of drugs (MIC) [3, 31]: 16 µg/mL
CC1(C)S[C@@H]2[C@H](NC(=O)[C@H](N)c3ccccc3)C(=O)N2[C@H]1C(=O)O [ampicillin] | – | – | – | – | – | – | – | – | – | – | – | 1 | 0.5 | AMP (4) + THIO (4) μg/ml | 0.25 | 32 | 2 | 16 | 1 | 128 | Combination of drugs (MIC) [3, 27]: 32 µg/mL; Combination of drugs (MIC) [3, 28]: 0.5 µg/mL; Combination of drugs (MIC) [3, 29]: 8 µg/mL; Combination of drugs (MIC) [3, 30]: 0.25 µg/mL; Combination of drugs (MIC) [3, 31]: 64 µg/mL; Combination of drugs (MIC) [3, 21]: 16 µg/mL
